Where two headings read alike, the source gives them in different places.
Legend:
monomeric Aβ 1-42 = target: T1, monomeric Aβ 1-42 (Homo sapiens, UniProt P05067); assay: SDS-PAGE/Western blot of Aβ 1-42 after incubation with compounds; format: biochemical; details: 25 μM pre-fibrillized Aβ 1-42, 37° C., 3 days, 0.2 μm filtrate, antibody 6E10
T1 construct: purchased Bachem Inc
Experimental: In this latter study, triplicate samples of pre-fibrillized Aβ 1-42 (25 μM) was incubated at 37° C. for 3 days, alone or in the presence of the compounds or EDTA. Five micrograms of each sample was then filtered through a 0.2 μm filter. Protein recovered from the filtrate was then loaded, and ran on a 10-20% Tris-Tricine SDS-PAGE, blotted to nitrocellulose and detected using an Aβ-antibody (clone 6E10; Senetek).

[1] = test system: BE-M17 human neuroblastoma cells overexpressing A53T α-synuclein; assay: Thioflavin S aggregation assay in rotenone-treated cells; format: cell-based
Excerpt: (§1) Therefore, to test the therapeutic potential of the compounds, two cell-based assays were utilized. In both assays, rotenone is used to induce mitochondrial oxidative stress and α-synuclein aggregation. The first assay utilizes the binding of the fluorescent dye thioflavin S to structures with high β-sheet content including α-synuclein fibrils. Therefore, quantitative assessment of the extent of thioflavin S-positive staining of fixed cells is used to test the ability of the compounds to decrease the amount of α-synuclein aggregates. In the second assay, cell viability is assessed using the XTT Cytotoxicity assay, which is dependent on intact, functional mitochondria in live cells. Thus, the XTT Cytotoxicity assay is used to test the ability of the compounds to ameliorate the mitochondrial toxicity and resulting loss of viability associated with the accumulation of α-synuclein aggregates. Phrased another way, the XTT Cytotoxicity assay is used to gauge the compounds neuroprotective efficacy. These studies are presented in the following examples.
(§2) BE-M17 human neuroblastoma cells stably transfected with A53T-mutant human α-synuclein were obtained. Cell culture reagents were obtained from Gibco/Invitrogen, and cells were grown in OPTIMEM supplemented with 10% FBS, Penicillin (100 units/mil)-Streptomycin (100 μg/ml) and 500 μg/ml G418 as previously described (Ostrerova-Golts et al., J. Neurosci., 20:6048-6054, 2000).
Thioflavin S is commonly used to detect amyloid-containing structures in situ, including in brain tissue (Vallet et al., Acta Neuropathol., 83:170-178, 1992), and cultured cells (Ostrerova-Golts et al., J. Neurosci., 20:6048-6054, 2000), whereas thioflavin T is often used as an in vitro reagent to analyze the aggregation of soluble amyloid proteins into fibrils enriched in β-pleated sheet structures (LeVine III, Prot. Sci., 2:404-410, 1993). Therefore, Thioflavin S histochemistry was used on cultured cells to detect aggregates containing a high degree of […] structures that formed in response to oxidative stress-inducing agents (in this case rotenone) as previously described, with minor modifications (Ostrerova-Golts et al., J. Neurosci, 20:6048-6054, 2000). Briefly, for these studies, cells were grown on Poly-D-Lysine coated glass slide chambers at approximately 3×10^4 cells/cm^2. After 24 hours, cells were treated with 500 nM, 1 μM or 5 μM rotenone (Sigma) or vehicle (0.05% DMSO) as indicated. Immediately after rotenone (or vehicle) addition, compounds were added at the indicated concentration, or cell culture media only (no compound) in the presence of rotenone was added. Identical treatments were repeated after 48 hours. After an additional 48 hours, cells were fixed for 25 minutes in 3% paraformaldehyde. After a PBS wash, the cells were incubated with 0.015% thioflavin S in 50% ethanol for 25 minutes, washed twice for four minutes in 50% ethanol and twice for five minutes in deionized water and then mounted using an aqueous-based mountant designed to protect against photobleaching. Aggregates that bind to thioflavin S were detected with a fluorescent microscope using a High Q FITC filter set (480 to 535 nm bandwidth) and a 20× objective lens unless otherwise indicated. Between 8 and 16 representative images per condition were selected, imaged and processed by an experimenter who was blinded to treatment conditions. To assess the amount of thioflavin S-positive aggregates, the total area per field covered by thioflavin S-positive inclusions was determined. […] Spurious, non-cell associated fluorescence was manually removed. Unless indicated otherwise, data represent group means ±SEM. Statistical analyses were performed with GraphPad Prism (GraphPad Inc). Differences between means (two samples) were assessed by the […]. Differences among multiple means were assessed by one-factor ANOVA followed by Tukey's multiple comparison test.

[2] = test system: A53T α-synuclein-expressing BE-M17 cells; assay: XTT Cytotoxicity assay - protection against rotenone-induced cytotoxicity; format: cell-based
Excerpt: as §1, §2
Research has shown that the accumulation of α-synuclein fibrils in Lewy bodies contributes mechanistically to the degradation of neurons in Parkinson's disease and related disorders (Polymeropoulos et al., Science 276:2045-2047, 1997; Kruger et al., Nature Genet. 18:106-108, 1998). Here, the XTT Cytotoxicity assay (hereafter referred to as the XTT assay) was used to measure the ability of test compounds to protect against rotenone-induced cytotoxicity (neuroprotective ability). The assay is based on the principle that conversion of the yellow tetrazolium salt XTT to form an orange formazan dye (that absorbs light around 490 nm) occurs only in metabolically active, viable cells. Therefore, light absorbance at 490 nm is proportional to cell viability. For this assay, cells were plated in 96 well tissue culture dishes at 10^4 cells per well. After 24 hours, cells were treated with 500 nM or 2 μM rotenone, or vehicle (0.05% DMSO) as indicated. Immediately after rotenone addition, compounds were added at the indicated concentration. […] Untreated cells received cell culture media only (no compound, with or without rotenone). After 40-44 hours of treatment, conditioned media was removed and replaced with 100 μl fresh media and 50 μl XTT labeling reaction mixture according to the manufacturer's recommendations. Four to five hours later, the absorbance at 490 nm was measured and corrected for absorbance at the 700 nm reference wavelength. […] Percent inhibition of cell death was calculated as the proportion of the rotenone-induced absorbance (viability) decrease that was eliminated by test compound treatment.

[3] = 5 μM rotenone, 1 μg/ml compound
[4] = 50 μg/ml compound, at both rotenone doses (500 nM or 2 μM)
[5] = 1 μM rotenone, 1 μg/ml compound
[6] = 5 μg/ml compound, rotenone 500 nM or 2 μM

T1 sequence (P05067 672-713): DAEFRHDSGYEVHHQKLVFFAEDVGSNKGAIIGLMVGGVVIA

SMILES | detection of Aβ 1-42 monomers (~4 kilodalton band) on Western blot (monomeric Aβ 1-42) | reduction of rotenone-induced thioflavin S-positive aggregates [1, 3] [%] | inhibition of rotenone-induced loss of viability [2, 4] | reduction of rotenone-induced thioflavin S-positive aggregates [1, 5] [%] | inhibition of rotenone-induced loss of viability [2, 6] | further results
O=C(NCc1ccc(O)c(O)c1)C(=Cc1ccc(O)c(O)c1)NC(=O)c1ccc(O)c(O)c1 [Compound 21, α-(3,4-dihydroxybenzamido)-3,4-dihydroxycinnamic acid 3,4-dihydroxybenzyl amide] | not detected | 84 | 30-40% |  |  | 
Oc1ccc(Cc2ccc(O)c(O)c2)cc1O [Compound 3, 3,4,3′,4′-tetrahydroxydiphenylmethane] |  |  |  | 90 |  | reduction of rotenone-induced thioflavin S-positive aggregates ([1]; 1 μM rotenone, 5 μg/ml compound): 90%
O=C(Nc1ccc(O)c(O)c1)Nc1ccc(O)c(O)c1 [Compound 76, 1,3-bis(3,4-dihydroxyphenyl)urea] | not detected | 80 |  |  | approximately 18% | reduction of rotenone-induced thioflavin S-positive aggregates ([1]; 5 μM rotenone, 500 ng/ml compound): 73%; reduction of rotenone-induced thioflavin S-positive aggregates ([1]; 5 μM rotenone, 5 μg/ml compound): 91%
O=C(Nc1ccc(O)c(O)c1)C(=O)Nc1ccc(O)c(O)c1 [Compound 63, oxalic acid bis(3,4-dihydroxyanilide)] |  |  |  |  | 10-13% | inhibition at 50 µg/mL ([2]; Homo sapiens, 50 μg/ml compound, 500 nM rotenone, read-out: inhibition of rotenone-induced toxicity): ~55%; inhibition at 50 µg/mL ([2]; Homo sapiens, 50 μg/ml compound, 2 μM rotenone, read-out: inhibition of rotenone-induced toxicity): ~35%
O=C(O)CN(CCN(CC(=O)O)CC(=O)O)CC(=O)O [EDTA, reference compound] | detected as a ˜4 kilodalton band |  |  |  |  | 
O=C(Nc1ccc(O)c(O)c1)c1ccc(O)c(O)c1 [Compound 51, 3,4-dihydroxybenzoic acid 3,4-dihydroxyanilide] | not detected |  | 25-30% | 91 |  | reduction of rotenone-induced thioflavin S-positive aggregates ([1]; 1 μM rotenone, 500 ng/ml compound): 87%; optimal therapeutic dose in XTT assay ([2]; 500 nM rotenone): ~25 µg/mL; inhibition at 10 µg/mL ([2]; Homo sapiens, 10 μg/ml compound, 500 nM rotenone, read-out: inhibition of rotenone-induced toxicity): 45%; inhibition at 25 µg/mL ([2]; Homo sapiens, 25 μg/ml compound, 500 nM rotenone, read-out: inhibition of rotenone-induced toxicity): 55%

Reference: patent US20070276034A1, “Compounds, compositions and methods for the treatment of synucleinopathies” (priority 2002, published 2007)
